Test results taken from patent US10669272B2, “Substituted naphthyridinone compounds useful as T cell activators” (BRISTOL-MYERS SQUIBB COMPANY, priority 2018, dated 2020).
Where two headings read alike, the source gives them in different places.

Assays:
human DGKζ = target: T1, human DGKζ (Homo sapiens, UniProt Q13574); test: DGKζ LIPGLO assay (extruded liposome substrate), in vitro DGK inhibition; assay type: biochemical; conditions: read-out: DGKz LIPGLO IC50
T1 construct: TVMV protease cleavage site (C); Hexa-His (C); made in house; host or cells: Sf9 insect cells (baculovirus, Bac-to-Bac)
T1 sequence (Q13574 with tags, fused parts or gaps isoform Q13574-4): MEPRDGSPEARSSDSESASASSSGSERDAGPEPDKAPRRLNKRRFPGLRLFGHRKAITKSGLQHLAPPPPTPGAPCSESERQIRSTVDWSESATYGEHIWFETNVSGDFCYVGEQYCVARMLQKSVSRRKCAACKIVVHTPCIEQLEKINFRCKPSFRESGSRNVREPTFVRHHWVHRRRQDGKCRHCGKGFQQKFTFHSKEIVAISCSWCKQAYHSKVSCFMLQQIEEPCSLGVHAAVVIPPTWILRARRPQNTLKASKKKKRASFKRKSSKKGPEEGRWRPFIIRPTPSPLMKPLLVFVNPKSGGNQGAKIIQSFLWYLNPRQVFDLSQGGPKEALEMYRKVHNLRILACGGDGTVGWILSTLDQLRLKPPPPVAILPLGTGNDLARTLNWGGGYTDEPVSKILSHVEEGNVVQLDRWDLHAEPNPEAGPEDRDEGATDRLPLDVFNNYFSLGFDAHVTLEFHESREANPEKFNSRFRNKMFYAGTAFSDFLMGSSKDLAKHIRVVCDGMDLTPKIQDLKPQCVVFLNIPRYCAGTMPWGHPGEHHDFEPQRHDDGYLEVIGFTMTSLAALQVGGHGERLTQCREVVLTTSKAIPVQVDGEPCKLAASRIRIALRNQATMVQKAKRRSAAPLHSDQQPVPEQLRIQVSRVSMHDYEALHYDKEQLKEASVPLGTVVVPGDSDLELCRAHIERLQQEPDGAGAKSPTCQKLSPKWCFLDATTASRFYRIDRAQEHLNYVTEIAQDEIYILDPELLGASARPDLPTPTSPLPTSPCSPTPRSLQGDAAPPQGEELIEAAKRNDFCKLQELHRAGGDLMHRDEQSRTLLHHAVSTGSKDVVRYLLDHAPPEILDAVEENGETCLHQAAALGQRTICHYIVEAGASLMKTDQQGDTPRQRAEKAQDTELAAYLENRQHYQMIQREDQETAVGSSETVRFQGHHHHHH

Human venous whole blood = test: Human whole blood IFN-γ assay; assay type: cell-based; conditions: human whole blood, read-out: INFg Whole Blood Normalized Agonist EC50;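 also: blood from healthy donors exposed to compound for 1 h before stimulation with anti-CD3 and anti-CD28 at 1 µg/mL each, IFN-γ quantified in supernatant by AlphaLISA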
Protocol: Human Whole Blood IFN-γ Assay
Human venous whole blood (22.5 μL per well), obtained from healthy donors, was pre-treated with compounds for one hour at 37° C. in a humidified 95% air/5% CO2 incubator. The blood was stimulated with 2.5 μL anti-human CD3 and anti-CD28 mAb at a final concentration of 1 μg/mL each for 24 hours at 37° C. IFN-γ in the supernatants was measured using AlphLISA kit (Cat # AL217).

human DGKα = target: T2, human DGKα (Homo sapiens, UniProt P23743); test: DGKα LIPGLO assay (extruded liposome substrate), in vitro DGK inhibition; assay type: biochemical; conditions: read-out: DGKa LIPGLO IC50
T2 construct: TVMV protease cleavage site (C); Hexa-His (C); made in house; host or cells: Sf9 insect cells (baculovirus, Bac-to-Bac)
T2 sequence (P23743 with tags, fused parts or gaps): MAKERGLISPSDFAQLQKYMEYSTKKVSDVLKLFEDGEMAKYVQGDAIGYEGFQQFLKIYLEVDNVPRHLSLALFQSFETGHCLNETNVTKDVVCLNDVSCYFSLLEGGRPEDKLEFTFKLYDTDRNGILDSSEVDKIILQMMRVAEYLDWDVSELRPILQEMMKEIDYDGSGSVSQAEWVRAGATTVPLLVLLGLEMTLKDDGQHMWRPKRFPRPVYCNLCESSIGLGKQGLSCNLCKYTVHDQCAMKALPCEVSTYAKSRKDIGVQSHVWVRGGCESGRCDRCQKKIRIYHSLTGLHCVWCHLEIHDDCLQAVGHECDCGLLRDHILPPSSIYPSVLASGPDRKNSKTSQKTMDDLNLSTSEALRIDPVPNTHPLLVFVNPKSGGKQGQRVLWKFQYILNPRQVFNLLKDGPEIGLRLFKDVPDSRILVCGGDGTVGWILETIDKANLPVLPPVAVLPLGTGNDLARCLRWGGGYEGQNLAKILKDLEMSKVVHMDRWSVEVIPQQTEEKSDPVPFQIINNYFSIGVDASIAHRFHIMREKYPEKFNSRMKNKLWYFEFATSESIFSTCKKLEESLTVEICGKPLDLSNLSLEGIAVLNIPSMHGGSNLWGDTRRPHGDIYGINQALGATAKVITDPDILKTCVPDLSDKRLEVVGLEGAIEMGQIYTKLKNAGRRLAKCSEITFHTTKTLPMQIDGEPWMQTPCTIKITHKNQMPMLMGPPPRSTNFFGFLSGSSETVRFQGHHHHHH

[1] = Homo sapiens, 24 h, normalized to 3 μM reference compound with anti-CD3 plus anti-CD28 as 100% activation
[2] = anti-CD3 plus anti-CD28, 24 hours, 3 μM reference compound = 100% activation
[3] = normalized to 3 μM reference compound with anti-CD3 plus anti-CD28 as 100% activation

| Structure (SMILES) | IC50 (human DGKζ; liposome (LIPGLO) assay) [nM] | EC50 (Human venous whole blood; [1]) [nM] | IC50 (human DGKα; liposome (LIPGLO) assay) [nM] | IC50 (human DGKζ; DGKζ liposome (LIPGLO) assay) [nM] | EC50 (Human venous whole blood; [2]) [nM] | IC50 (human DGKα; DGKα liposome (LIPGLO) assay) [nM] | EC50 (Human venous whole blood; [3]) [nM] | EC50 (Human venous whole blood; Homo sapiens, 24 h, anti-CD3 plus anti-CD28, 24 hours, 3 μM reference compound = 100% activation) [nM] |
| --- | --- | --- | --- | --- | --- | --- | --- | --- |
| CC[C@H]1CN(C(C)c2ccc(C3CC3)cc2F)[C@H](CC)CN1c1cc(=O)n(C)c2ccc(C#N)nc12 (single isomer, unassigned) [Example 1358] | 680 | 1200 | 1700 |  |  |  |  |  |
| COCc1cc(F)ccc1C(C)N1C[C@H](C)N(c2cc(=O)n(C)c3ccc(C#N)nc23)C[C@H]1C (single isomer, unassigned) [Example 1315] | 1400 | 20000 | 79000 |  |  |  |  |  |
| CC(c1ccc(OC(F)(F)F)cc1)N1C[C@H](C)N(c2c(C#N)c(=O)n(C)c3ccc(C#N)nc23)C[C@H]1C (single isomer, unassigned) [Example 802] |  |  |  | 24000 | 10000 | 1300 |  |  |
| COc1ccc(C(c2cccc(F)c2)N2C[C@H](C)N(c3cc(=O)n(C)c4ccc(C#N)nc34)C[C@H]2C)nc1 (single isomer, unassigned) [Example 686] | 3400 |  | 4300 |  |  |  | 560 |  |
| CC[C@H]1CN(C(C)c2ccc(C3CC3)cc2)[C@H](CC)CN1c1cc(=O)n(C)c2ccc(C#N)nc12 (single isomer, unassigned) [Example 1356] | 3400 |  | 1900 |  |  |  | 1300 |  |
| C[C@@H]1CN(c2c(C#N)c(=O)n(C)c3ccc(C#N)nc23)[C@@H](C)CN1C(c1ccc(F)cc1)c1ccon1 (single isomer, unassigned) [Example 851] |  |  |  | 27000 | 20000 | 1300 |  |  |
| Cc1cc(C(C)N2C[C@H](C)N(c3c(C#N)c(=O)n(C)c4ccc(C#N)nc34)C[C@H]2C)no1 (single isomer, unassigned) [Example 804] |  |  |  | 32000 | 20000 | 6900 |  |  |
| COCCOc1cc(C(C)N2C[C@H](C)N(c3cc(=O)n(C)c4ccc(C#N)nc34)C[C@H]2C)ccc1OC (single isomer, unassigned) [Example 1302] | 6600 | 20000 | 130000 |  |  |  |  |  |
| Cc1cc(CN2C[C@H](C)N(c3cc(=O)n(C)c4ccc(C#N)nc34)C[C@H]2C)no1 [Example 1424] | 14000 | 20000 | 3700 |  |  |  |  |  |
| CC(C)c1noc(C(c2ccc(F)cc2)N2C[C@H](C)N(c3cc(=O)n(C)c4ccc(C#N)nc34)C[C@H]2C)n1 (single isomer, unassigned) [Example 747] |  |  |  | 69 | 180 | 300 |  |  |
| COc1cc(C(C)N2C[C@H](C)N(c3cc(=O)n(C)c4ccc(C#N)nc34)C[C@H]2C)ccc1F (single isomer, unassigned) [Example 1231] | 110 |  | 3800 |  |  |  | 1200 |  |
| COc1ccc(C(c2ccc(F)cc2)N2C[C@H](C)N(c3cc(=O)n(C)c4ccc(C#N)nc34)C[C@H]2C)cc1 (stereo partly drawn) [Example 659] | 310 |  | 1400 |  |  |  | 17000 |  |
| CC(c1ccc(F)cn1)N1C[C@H](C)N(c2cc(=O)n(C)c3ccc(C#N)nc23)C[C@H]1C (single isomer, unassigned) [Example 641] | 15000 |  | 1700 |  |  |  | 5900 |  |
| C[C@@H]1CN(c2c(C#N)c(=O)n(C)c3ccc(C#N)nc23)[C@@H](C)CN1C(c1ccc(F)cc1)c1nc(C2CC2)no1 (single isomer, unassigned) [Example 860] |  |  |  | 1300 |  | 410 |  | 720 |
| CC[C@H]1CN(Cc2ccc3c(c2)OC(F)(F)O3)[C@H](COC)CN1c1cc(=O)n(C)c2ccc(C#N)nc12 [Example 1407] | 350 | 4400 | 7100 |  |  |  |  |  |
| CC(c1ccc(F)cn1)N1C[C@H](C)N(c2cc(=O)n(C)c3ccc(C#N)nc23)C[C@H]1C (single isomer, unassigned) [Example 640] | 3900 |  | 36 |  |  |  | 1600 |  |
| CC[C@@H]1CN(c2cc(=O)n(C)c3ccc(C#N)nc23)[C@@H](C)CN1C(c1ccc(F)cc1)c1ccc(F)cc1 [Example 1097] | 210 | 660 | 400 |  |  |  |  |  |
